Where a SMILES comes first, the peptide text is derived from it. [ ]: non-standard residue; d: D form. The star is where a group is joined. Phe(4-Br) = N[C@@H](Cc1ccc(Br)cc1)C(=O)O; Palmitoyl = CCCCCCCCCCCCCCCC(=O)*; NMeL = CN[C@@H](CC(C)C)C(=O)O; αMeL = CC(C)C[C@](C)(N)C(=O)O; Nle = CCCC[C@H](N)C(=O)O; Aib = CC(C)(N)C(=O)O
Legend:
[1] = in vitro; settings: human, plasma
[2] = tested on: anesthetized mice; assay: Blood pressure assay in anesthetized mice; format: in vivo; settings: 1.4 μM/kg body weight injected; for blood pressure lowering (hypotensive) effect: SBP, DBP, MABP
Method: Synthetic peptides 8-19 were tested for blood pressure lowering abilities in anesthetized mice. Apelin peptides were injected through […], monitoring blood pressure (BP) and heart rate (HR) over 60 minutes.
Mice were anaesthetized with 1.5% isoflurane/oxygen, and body temperature was monitored and maintained at 36° C. by a heating pad. The aorta was cannulated via the right carotid artery using a PV loop catheter (Model 1.2F from Scisense, Transonic) in order to continuously record arterial blood pressure and heart rate (LabScribe 2.0, Scisense). […] Results are reported as systolic blood pressure (SBP), diastolic blood pressure (DBP), mean arterial blood pressure (MABP) and heart rate (HR).
Apelin peptides 11, 56-59 as well as the KLKB1-cleavage fragments 54 and 55 were tested for blood pressure lowering abilities in anesthetized mice.
Mice were anesthetized with 1.5% isoflurane/oxygen, and body temperature was monitored and maintained at 36° C. by a heating pad. The aorta was cannulated via the right carotid artery using a PV loop catheter (model 1.2F from Scisense, Transonic) in order to continuously record arterial blood pressure and heart rate (LabScribe 2.0, Scisense). Compounds 11, and 54-59 or 55-59 (1.4 μM/kg body weight) or the same volume of saline was injected via the right jugular vein. Results are reported as systolic blood pressure (SBP), diastolic blood pressure (DBP), mean arterial blood pressure (MABP), and heart rate (HR) shown in FIGS. 15A-D.
Apelin peptides were delivered systemically via the right internal jugular vein while blood pressure (BP) and heart rate (HR) were continuously monitored in the aorta cannulated via the right carotid artery. All N-terminally extended apelin peptides, except 58, show pronounced and time-stable blood pressure lowering effects (FIGS. 15a-d). […] This correlates with the results obtained from the Ca^2+ mobilization assay.

remaining at 0.5 h, 80 µM [1] | remaining at 1 h, 80 µM [1] | Structure (SMILES) | effect on heart rate (HR) [2] | blood pressure lowering (hypotensive) effect [2]
77 ± 4% | 48 ± 7% | CCCC[C@H](NC(=O)[C@@H]1CCCN1C(=O)CNC(=O)[C@H](CCCCN)NC(=O)[C@H](Cc1c[nH]cn1)NC(=O)[C@H](CO)NC(=O)[C@](C)(CC(C)C)NC(=O)[C@H](CCCNC(=N)N)NC(=O)[C@@H]1CCCN1C(=O)[C@H](CCCNC(=N)N)NC(=O)[C@H](CCC(N)=O)NC(=O)[C@H](CCCNC(=N)N)NC(=O)[C@H](CCCNC(=N)N)NC(=O)[C@H](Cc1ccccc1)NC(=O)[C@@H](N)CCCCN)C(=O)NC(C)(C)C(=O)N[C@@H](Cc1ccc(Br)cc1)C(=O)O [Peptide 15] (H-KFRRQRPR[αMeL]SHKGP[Nle][Aib][Phe(4-Br)]-OH; N-terminus and C-terminus assumed) | had an impact on the heart rate | without inducing any vasoactive effects
– | – | CCCC[C@H](NC(=O)[C@@H]1CCCN1C(=O)CNC(=O)[C@H](CCCCN)NC(=O)[C@H](Cc1c[nH]cn1)NC(=O)[C@H](CO)NC(=O)[C@H](CC(C)C)NC(=O)[C@H](CCCNC(=N)N)NC(=O)[C@@H]1CCCN1C(=O)[C@H](CCCNC(=N)N)NC(=O)[C@H](CCC(N)=O)NC(=O)[C@@H](N)CCCNC(=N)N)C(=O)NC(C)(C)C(=O)N[C@@H](Cc1ccc(Br)cc1)C(=O)O [Peptide 54] (H-RQRPRLSHKGP[Nle][Aib][Phe(4-Br)]-OH; C-terminus assumed) | – | inactive or nearly so
– | – | CCCC[C@H](NC(=O)[C@@H]1CCCN1C(=O)CNC(=O)[C@H](CCCCN)NC(=O)[C@H](Cc1c[nH]cn1)NC(=O)[C@H](CO)NC(=O)[C@H](CC(C)C)N(C)C(=O)[C@H](CCCNC(=N)N)NC(=O)[C@@H]1CCCN1C(=O)[C@H](CCCNC(=N)N)NC(=O)[C@H](CCC(N)=O)NC(=O)[C@@H](N)CCCNC(=N)N)C(=O)NC(C)(C)C(=O)N[C@@H](Cc1ccc(Br)cc1)C(=O)O [Peptide 55, Arg-Gln-Arg-Pro-Arg-NMeLeu-Ser-His-Lys-Gly-Pro-Nle-Aib-paraBrPhe] (H-RQRPR[NMeL]SHKGP[Nle][Aib][Phe(4-Br)]-OH; C-terminus assumed) | – | inactive or nearly so
– | – | CCCCCCCCCCCCCCCC(=O)N[C@@H](CCCCN)C(=O)N[C@@H](Cc1ccccc1)C(=O)N[C@@H](CCCNC(=N)N)C(=O)N[C@@H](CCCNC(=N)N)C(=O)N[C@@H](CCC(N)=O)C(=O)N[C@@H](CCCNC(=N)N)C(=O)N1CCC[C@H]1C(=O)N[C@@H](CCCNC(=N)N)C(=O)N[C@@H](CC(C)C)C(=O)N[C@@H](CO)C(=O)N[C@@H](Cc1c[nH]cn1)C(=O)N[C@@H](CCCCN)C(=O)NCC(=O)N1CCC[C@H]1C(=O)N[C@@H](CCCC)C(=O)NC(C)(C)C(=O)N[C@@H](Cc1ccc(Br)cc1)C(=O)O [Peptide 56] (Palmitoyl-KFRRQRPRLSHKGP[Nle][Aib][Phe(4-Br)]-OH; C-terminus assumed) | – | more potent than apelin-17 (2) and apelin-17A2 (5)

From patent US10640545B2 (THE GOVERNORS OF THE UNIVERSITY OF ALBERTA, priority 2017, dated 2020)
